Several values for one entry are separate records, joined by “and”; a condition that tells them apart may be missing. Equal values may be shown once.
Tests used:
Format in all cases: in vivo
leptin = test: DIN mouse model: plasma leptin; conditions: for plasma leptin day 70: day 70, 20 mg/kg
Procedure: (§1) Male C57Bl/6J mice (8 weeks old) were housed in enriched ventilated cages (31×12.5×12.7 cm) throughout the experimental phase. Animals' cages litters were changed at least once a week. Animal were housed 5 per cage on inverted 12-hour light cycle (at 09:00 am lights off), 22±2° C. and 55±10% relative humidity. The acclimation period was 20 days. During the acclimation period, all mice were fed a standard diet (RM1 (E) 801492, SDS) and tap water ad libitum. After the acclimation period, mice were fed with the DIN diet (60% fat, cholesterol enriched) and fructose-enriched tap water ad libitum until the end of the experiment.
(§2) At 6 weeks of diet, mice were 4-hour fasted (09:00 am to 1:00 pm) and blood (150 μl/EDTA) was collected at 01:00 pm by retro-orbital bleeding under isoflurane anesthesia. Mice were then allocated in 2 homogenous groups (n=12/group) according to their plasma levels of ALT (average levels: 685U/L), AST (average levels: 627U/L) and HOMA-IR index (average value: 4.7), into 2 homogenous groups (see values at day 0 in Tables 15A and 15B ALT/AST and Tables 16A and 16B for HOMA-IR). Mice were then treated once daily by oral gavage with vehicle (Group 1) or Compound #37 at 20 mg/kg (Group 2) for 70 days.
To investigate whether Compound #37 improves pre-existing steatosis/NASH pathology, a study was conducted using a 16-week diet-induced NASH mouse model. In this model, mice develop steatosis that progresses with inflammation and fibrosis that mimic many of the observed pathologies in human nonalcoholic fatty liver disease (NAFLD) and NASH (Hebbard & George, 2010). For 6 weeks, mice were fed a high-fat, high-cholesterol diet and provided drinking water containing fructose to induce liver pathology (Charlton et al, 2011). […]

ACC1 = test: Short-term Paigen-diet NASH mouse model: hepatic ACC1 gene expression (RT-qPCR); conditions: liver, 21 days; for DDct: ACC1 Dct relative to vehicle mean; for Dct: ACC1 minus 18S; for 2DDct: ACC1 relative expression to vehicle group, normalized to 18S; for ACC1: raw RT-qPCR value
Procedure: To investigate whether Compound #37 prevents the development of pathology associated with NASH and steatosis in an acute exploratory disease model, a study was conducted using a diet-induced acute liver steatosis model in mice. As described below, in this study, C57BL/6J mice were initiated on the Paigen diet and simultaneously treated with Compound #37 (5, 20, and 40 mg/kg/day) or vehicle control (20% HPβCD 10 mL/kg/day) by oral gavage for 21 days.
After acclimation, 8-week old male C57Bl/6J mice (Charles River) weighing about 25 g were randomized in 4 groups according their body weight and treated once daily around noon by oral gavage with vehicle, or Compound #37 at various for 21 days as follows: Group 1: vehicle-20% (2-hydroxypropyl)-β-cyclodextrin (HP-β-CD) (n=10); Group 2: Compound #37, 5 mg/kg (n=10) Group 3: Compound #37, 20 mg/kg (n=10) Group 4: Compound #37, 40 mg/kg (n=10). During the treatment period, body weight and food intake (measured over 24h) were measured 3 times per week and once a week, respectively. During the acclimation, all mice were fed a standard diet (Special Diets Services RM1 (E), product no. 801492) and tap water ad libitum. After the acclimation period, mice were fed until the end of the experiment with a 60% high fat Paigen diet (60 kcal % fat, 1.25% cholesterol, and 0.5% cholate; D11061901, Research Diet) and tap water ad libitum.
Gene expression analysis. Hepatic expression levels of genes involved in lipid metabolism (FAS, SREBP1, ACC1, SCD1), cholesterol metabolism (HMG-CoAR, LDLR), SREBP proteolysis (SCAP, INSIG1), ER stress (PERK), oxidative stress (NRF2), inflammation (MCP-1), and fibrosis (collagen 1α1) were quantified by RTqPCR. Expression level was normalized to 18S gene expression and relative expression to vehicle group was calculated with the […] method.

[1] = system: diet-induced NASH obese insulin resistant mice; test: DIN mouse model: NAS scores; parameters: total / steatosis / inflammation / fibrosis / hepatocyte ballooning: scale not given here
Procedure: NAFLD score analysis. A 0.5 cm^3 piece of liver was fixed in 10% formalin for 48-72h, stored in ethanol 70° at 4° C., and processed for eosin/hematoxylin staining and NAFLD score analysis. One section (thickness 3-5 μm) per block was deposited on Superfrost+slides for hematoxylin-eosin staining. Individual slides having a single hepatic lobe section stained with H&E were digitized using a Nanozoomer from Hamamatsu. Sections were evaluated with knowledge of groups. Each section was evaluated and individually scored. A NAFLD scoring system (NAS) adapted from Kleiner et al. (Hepatology 41, 1313-21, 2005), Wu et al. (BMC Vet. Res. 10, 162, 2014), and Lee et al. (J. Lipid Res. 48, 1885-96, 2007). A total of four variables were qualitatively assessed and ranked with a score: (1) hepatocellular steatosis, (2) liver inflammation, (3) lobular fibrosis, and (4) hepatocyte ballooning.
as §1, §2
Each section was evaluated and individually scored using the modified NAFLD scoring system described above.

[2] = Compound #37 5 mg/kg, group mean, n=8
[3] = Compound #37 5 mg/kg, individual animals, 5 mg/kg
[4] = Compound #37 20 mg/kg, group mean, n=6
[5] = Compound #37 20 mg/kg, individual animals, 20 mg/kg
[6] = NAS score, 20 mg/kg group, mean, n 11

For `CC(C)Cc1cc(-c2nc(-c3ccc(NS(=O)(=O)C(F)(F)F)cc3Cl)cs2)ccn1` [Compound 37, N-(3-chloro-4-(2-(2-isobutylpyridin-4-yl)thiazol-4-yl)phenyl)-1,1,1-trifluoromethanesulfonamide], the plasma leptin reduction (leptin; 20 mg/kg, end of the treatment period, vs. vehicle) was 38%, the “plasma leptin day 70” value (leptin; group mean, n 11) was 265 pg/mL and the “plasma leptin day 70” value (leptin; individual animals) was 454 pg/mL and 330 pg/mL and 202 pg/mL and 280 pg/mL and 341 pg/mL and 144 pg/mL and 294 pg/mL and 46 pg/mL and 269 pg/mL and 374 pg/mL and 187 pg/mL. For the same compound, the DDct (ACC1; [2]) was 0.81, the DDct (ACC1; [3]) was 1.08 and 0.78 and 1.88 and 3.12 and −0.53 and −0.87 and 1.01 and 0.01 and the DDct (ACC1; [4]) was 2.71. For the same compound, the DDct (ACC1; [5]) was 0.6 and 7.15 and 3.66 and 0.46 and 3.91 and 0.45, the Dct (ACC1; [2]) was 18.7 and the Dct (ACC1; [3]) was 19 and 18.7 and 19.8 and 21.04 and 17.39 and 17.05 and 18.93 and 17.93. The Dct (ACC1; [4]) was 20.6, the Dct (ACC1; [5]) was 18.52 and 25.07 and 21.58 and 18.38 and 21.83 and 18.37 and the 2DDct (ACC1; [2]) was 0.78. For the same compound, the 2DDct (ACC1; [3]) was 0.47 and 0.58 and 0.27 and 0.12 and 1.44 and 1.83 and 0.5 and 0.99, the 2DDct (ACC1; [4]) was 0.38 and the 2DDct (ACC1; [5]) was 0.66 and 0.01 and 0.08 and 0.73 (2×) and 0.07. The ACC1 (ACC1; [2]) was 30.9, the ACC1 (ACC1; [3]) was 32.46 and 31.81 and 31.41 and 34.39 and 28.99 and 28.84 and 30.07 and 29.05 and the ACC1 (ACC1; [4]) was 32.8. The ACC1 (ACC1; [5]) was 31.43 and 37.36 and 33.78 and 31.41 and 33.32 and 29.63, the inflammation score increase ([1]; 20 mg/kg, 70 days, p<0.05 vs. vehicle) was 81% and the fibrosis score reduction ([1]; 20 mg/kg, 70 days, p=0.055 vs. vehicle) was 45%. For the same compound, the total ([1]; NAS score, 20 mg/kg group, individual animal, 20 mg/kg) was 7 and 8 and 3 (2×) and 5 (2×) and 6 (4×) and 4, the fibrosis [1, 6] was 0.64 and the hepatocyte ballooning [1, 6] was 1.91. The inflammation [1, 6] was 0.91, the steatosis [1, 6] was 1.91 and the total [1, 6] was 5.36.
